Positions count from the first letter of the chain named.
Key:
Type in all cases: cell-based
androgen receptor (AR) [1] = target: T1, androgen receptor (AR) (Homo sapiens, UniProt P10275); assay: AR degradation activity in VCAP cells (Western blot); conditions: VCAP cell line, 24 hours after administration; DC50 = concentration for 50% target protein degradation
T1 construct: endogenous in cells; host or cells: VCAP
T1 sequence (P10275 1-920): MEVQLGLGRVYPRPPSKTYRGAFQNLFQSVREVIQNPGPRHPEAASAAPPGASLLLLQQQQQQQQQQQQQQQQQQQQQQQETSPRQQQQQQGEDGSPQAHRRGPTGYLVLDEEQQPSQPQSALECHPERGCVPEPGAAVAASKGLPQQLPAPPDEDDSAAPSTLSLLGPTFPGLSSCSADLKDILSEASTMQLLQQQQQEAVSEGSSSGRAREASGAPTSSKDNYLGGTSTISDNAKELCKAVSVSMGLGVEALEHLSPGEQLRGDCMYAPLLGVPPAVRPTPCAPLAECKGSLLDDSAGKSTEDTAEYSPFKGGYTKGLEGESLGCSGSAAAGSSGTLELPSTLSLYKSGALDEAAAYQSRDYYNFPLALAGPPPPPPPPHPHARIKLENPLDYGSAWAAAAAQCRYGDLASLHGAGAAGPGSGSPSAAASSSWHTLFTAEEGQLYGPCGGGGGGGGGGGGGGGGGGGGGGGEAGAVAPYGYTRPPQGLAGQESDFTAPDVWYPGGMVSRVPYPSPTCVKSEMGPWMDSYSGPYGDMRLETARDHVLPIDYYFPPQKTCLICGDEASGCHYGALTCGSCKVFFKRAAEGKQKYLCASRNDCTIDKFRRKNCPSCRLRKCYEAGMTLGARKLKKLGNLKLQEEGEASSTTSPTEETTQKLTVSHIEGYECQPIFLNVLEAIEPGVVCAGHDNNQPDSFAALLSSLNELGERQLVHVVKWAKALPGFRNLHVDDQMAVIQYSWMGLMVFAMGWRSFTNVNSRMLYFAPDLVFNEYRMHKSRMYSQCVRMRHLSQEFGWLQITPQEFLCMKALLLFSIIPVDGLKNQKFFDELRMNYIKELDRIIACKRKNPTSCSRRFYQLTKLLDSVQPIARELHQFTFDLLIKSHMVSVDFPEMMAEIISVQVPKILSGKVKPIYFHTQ
Procedure: (§1) LNCAP, VCAP and 22Rv1 cells were plated in 24-well plates at 1.5×10E5 cells/well in the RPMI growth medium containing 10% FBS and 1% Penicillin Streptomycin, and then incubated at 37° C. overnight. The following day, the test compound was administered to the cells by using 1000× compound stock solution prepared in DMSO at various concentrations. After administration of the compound, the cells were then incubated at 37° C. for 24 hours. Upon completion, the cells were washed with PBS and protein was collected in Laemmli sample buffer (1×; VWR International). Proteins in cell lysate were separated by SDS-PAGE and transferred to Odyssey nitrocellulose membranes (Licor) with iblot® dry blotting transfer system (ThermoFisher). Nonspecific binding was blocked by incubating membranes with Intercept Blocking Buffer (Licor) for 1 hour at room temperature with gentle shaking. The membranes were then incubated overnight at 4° C. with Primary antibodies rabbit anti-AR (1:1,000, Cell Signaling, 5153) and mouse anti-GAPDH (1:5,000, Santa Cruz Biotechnology, sc-47724) diluted in Intercept Blocking Buffer containing 0.1% Tween 20. After washing 3 times with TBS-T, the membranes were incubated with IRDye® […] goat anti-mouse IgG (1:20,000, Licor) or IRDye®8000W goat anti-rabbit IgG (1:20,000, Licor) for 1 hour. After TBS-T washes, membranes were rinsed in TBS and scanned on Odyssey® CLx Imaging System (Licor). The bands were quantified using Image Studio™ Software (Licor).
(§2) Table 4 summarizes the androgen receptor (AR) degradative activity and cell growth inhibition of exemplary compounds in (a) LNCAP, VCAP, and 22Rv1 cell lines 24 hours after administration of the compound; (b) RAMOS cell line 3 days after administration of the compound; and (c) VCAP cell line 6 days after administration of the compound. DC50: compound concentration needed for 50% target protein degradation.

VCAP cells = assay: Cell growth inhibition for VCAP cells (CellTiter-Glo); conditions: Homo sapiens, 144 h; VCAP cell line, 6 days after administration, 0.1 nM R1881, charcoal-stripped FBS
Procedure: VCAP cells (ATCC) were seeded in 96-well plates at 3000 cell/well in 80 μl of DMEM growth medium containing 10% charcoal-stripped FBS (CSS) and 1% Penicillin/Streptomycin. Cells were incubated at 37° C. overnight. The following day, the test compound was administered to the cells by using 10× compound stock solution prepared in growth medium at various concentrations. Four hours later, 0.1 nM R1881 (Sigma) was administered to the cells by using 10× compound stock solution prepared in growth medium. 0.1% DMSO with or without 0.1 nM R1881 was administered as control. Cells were then incubated at 37° C. for 6 days. Before CelTiter-Glo assay, the plates were equilibrated at room temperature for approximately 10 minutes. 100 ul of CellTiter-Glo® Reagent (Promega) was added to each well. The plates were then incubated at room temperature for 10 minutes and luminescence was recorded by EnSpire plate reader (PerkinElmer).
as §2

androgen receptor (AR) [2] = target: T2, androgen receptor (AR) (Homo sapiens, UniProt P10275, T878A); assay: AR degradation activity in LNCAP cells (Western blot); conditions: LNCAP cell line, 24 hours after administration; DC50 = concentration for 50% target protein degradation
T2 construct: endogenous in cells; host or cells: LNCAP
T2 sequence (P10275 1-920 T878A): T1 sequence (P10275 1-920) with T878A
Procedure: as §1, §2

RAMOS cells = assay: Cell growth inhibition for Ramos cells (CellTiter-Glo); conditions: Homo sapiens, 72 h; RAMOS cell line, 3 days after administration
Procedure: RAMOS cells (ATCC) were seeded in 96-well plates at 16,000 cell/well in 90 μl of RPMI growth medium containing 10% Heat-Inactivated Fetal Bovine Serum and 1% Penicillin/Streptomycin. The test compound was administered to the cells by using 10× compound stock solution prepared in growth medium at various concentrations. After administration of the compound, cells were then incubated at 37° C. for 3 days. Before CellTiter-Glo assay, the plates were equilibrated at room temperature for approximately 10 minutes. 100 ul of CellTiter-Glo® Reagent (Promega) was added to each well. The plates were then incubated at room temperature for 10 minutes and luminescence was recorded by EnSpire plate reader (PerkinElmer).
as §2

androgen receptor (AR) [3] = assay: AR degradation activity in 22Rv1 cells (Western blot); conditions: 22Rv1 cell line, 24 hours after administration; DC50 = concentration for 50% target protein degradation
Procedure: as §1, §2

SMILES | DC50 (androgen receptor (AR) [1]) [nM] | GI50 (VCAP cells) [nM] | DC50 (androgen receptor (AR) [2]) [nM] | GI50 (RAMOS cells) [nM] | DC50 (androgen receptor (AR) [3]) [nM]
CC1(C)C(NC(=O)c2ccc(N3CCC(CN4CCN(c5ccc6c(c5)C(=O)N(C5CCC(=O)NC5=O)C6=O)CC4)CC3)nc2)C(C)(C)C1Oc1ccc(C#N)c2ncccc12 (stereo not drawn) [Compound 2-13, N-(1,3-trans)-3-((8-cyanoquinolin-5-yl)oxy)-2,2,4,4-tetramethylcyclobutyl)-6-(4-((4-(2-(2,6-dioxopiperidin-3-yl)-1,3-dioxoisoindolin-5-yl)piperazin-1-yl)methyl)piperidin-1-yl)nicotinamide] | 0.7 | 47.6 | 0.7 | > 3000 | 
CC1(C)C(NC(=O)c2cnc(N3CCC(CN4CCN(c5ccc6c(c5)C(=O)N(C5CCC(=O)NC5=O)C6=O)CC4)CC3)nc2)C(C)(C)C1Oc1ccc(C#N)c2ncccc12 (stereo not drawn) [Compound 2-18, N-(1,3-trans)-3-((8-cyanoquinolin-5-yl)oxy)-2,2,4,4-tetramethylcyclobutyl)-2-(4-((4-(2-(2,6-dioxopiperidin-3-yl)-1,3-dioxoisoindolin-5-yl)piperazin-1-yl)methyl)piperidin-1-yl)pyrimidine-5-carboxamide] | 0.4 |  | 0.4 |  | 
CC1(C)[C@H](NC(=O)c2ccc(N3CCC(CN4CCN(c5ccc6c(c5)C(=O)N(C5CCC(=O)NC5=O)C6=O)CC4)CC3)nn2)C(C)(C)[C@H]1Oc1ccc(C#N)c2ncccc12 (some centres unmarked) [Compound 2-19] | 1 |  | 0.5 |  | 
CC1(C)C(NC(=O)c2ccc(N3CCC(CN4CCN(c5ccc6c(c5)C(=O)N(C5CCC(=O)NC5=O)C6=O)CC4)CC3)cc2)C(C)(C)C1Oc1ccc(C#N)c2ncccc12 (stereo not drawn) [Compound 2-21, N-(1,3-trans)-3-((8-cyanoquinolin-5-yl)oxy)-2,2,4,4-tetramethylcyclobutyl)-4-(4-((4-(2-(2,6-dioxopiperidin-3-yl)-1,3-dioxoisoindolin-5-yl)piperazin-1-yl)methyl)piperidin-1-yl)benzamide] | 1.2 | 18 | 2.2 | > 3000 | 0.9
CC1(C)[C@H](NC(=O)c2ccc(N3CCC(CN4CCN(c5ccc6c(c5)C(=O)N(C5CCC(=O)NC5=O)C6=O)CC4)CC3)c(F)c2)C(C)(C)[C@H]1Oc1ccc(C#N)c2ncccc12 (some centres unmarked) [Compound 2-22] | 1.7 | 8 | 1 |  | 2.8
CC1(C)C(NC(=O)c2ccc(N3CCC(CN4CCN(c5ccc6c(c5)CN([C@H]5CCC(=O)NC5=O)C6=O)CC4)CC3)nc2)C(C)(C)C1Oc1ccc(C#N)c2ncccc12 (some centres unmarked) [Compound 2-29] |  | 2.1 | 0.1 | > 3000 | 0.13
CC1(C)C(NC(=O)c2ccc(N3CCC(CN4CCN(c5ccc6c(c5)CN([C@H]5CCC(=O)NC5=O)C6=O)CC4)CC3)c(F)c2)C(C)(C)C1Oc1ccc(C#N)c2ncccc12 (some centres unmarked) [Compound 2-32] | 0.3 | 5.7 | 0.1 | > 3000 | 0.25
CC1(C)C(NC(=O)c2ccc(N3CCC(CCN4CCN(c5ccc6c(c5)C(=O)N(C5CCC(=O)NC5=O)C6=O)CC4)CC3)cc2)C(C)(C)C1Oc1ccc(C#N)c2ncccc12 (stereo not drawn) [Compound 2-43, N-(1,3-trans)-3-((8-cyanoquinolin-5-yl)oxy)-2,2,4,4-tetramethylcyclobutyl)-4-(4-(2-(4-(2-(2,6-dioxopiperidin-3-yl)-1,3-dioxoisoindolin-5-yl)piperazin-1-yl)ethyl)piperidin-1-yl)benzamide] | 1.8 | 31.2 | 2 | > 3000 | 
CC1(C)[C@H](NC(=O)c2ccc(N3CCC(CN4CCN(c5ccc6c(c5)CN([C@H]5CCC(=O)NC5=O)C6=O)CC4)CC3)cc2)C(C)(C)[C@H]1Oc1ccc(C#N)c2ncccc12 [Compound 2-49, N-((1,3-trans)-3-((8-cyanoquinolin-5-yl)oxy)-2,2,4,4-tetramethylcyclobutyl)-4-(4-((4-(2-((S)-2,6-dioxopiperidin-3-yl)-1-oxoisoindolin-5-yl)piperazin-1-yl)methyl)piperidin-1-yl)benzamide] | 0.4 | 8.2 | 0.4 | > 3000 | 0.4
